In ChEMBL document CHEMBL5131473, “One-pot synthesis of oxoaporphines as potent antitumor agents and investigation of their mechanisms of actions” (Eur J Med Chem, 2022):
Active and inactive are the calls of the source. The rule behind the calls is not given here.

Columns and labels:
[1] = test system: WI-38; assay: Cytotoxicity against human WI-38 cells by MTT assay; assay type: toxicity, cell-based
[2] = Toxicity in BALB/C nude mouse xenografted with human T24 cells assessed as effect on liver at 30 mg/kg, IG administered every 2 days for 14 days by H and E staining based assay; assay type: organism-based, T-24; details: in vivo, po, 336 h, time 14 day
[3] = Toxicity in BALB/C nude mouse xenografted with human T24 cells assessed as effect on lung at 30 mg/kg, IG administered every 2 days for 14 days by H and E staining based assay; assay type: organism-based, T-24; details: in vivo, po, 336 h, time 14 day
[4] = Toxicity in BALB/C nude mouse xenografted with human T24 cells assessed as effect on kidney at 30 mg/kg, IG administered every 2 days for 14 days by H and E staining based assay; assay type: organism-based, T-24; details: in vivo, po, 336 h, time 14 day
[5] = test system: HepG2; assay: Antiproliferative activity against human HepG2 cells assessed as cell growth inhibition measured after 48 hrs by MTT assay; assay type: functional, cell-based; details: HepG2, 48 h
[6] = test system: MGC-803; assay: Antiproliferative activity against human MGC-803 cells assessed as cell growth inhibition measured after 48 hrs by MTT assay; assay type: functional, cell-based; details: MGC-803, 48 h
[7] = test system: T-24; assay: Antiproliferative activity against human T24 cells assessed as cell growth inhibition measured after 48 hrs by MTT assay; assay type: functional, cell-based; details: T-24, 48 h
[8] = test system: SK-OV-3; assay: Antiproliferative activity against human SK-OV-3 cells assessed as cell growth inhibition measured after 48 hrs by MTT assay; assay type: functional, cell-based; details: SK-OV-3, 48 h
[9] = test system: WI-38; assay: Antiproliferative activity against human WI-38 cells assessed as cell growth inhibition measured after 48 hrs by MTT assay; assay type: functional, cell-based; details: WI-38, 48 h
[10] = test system: T-24; assay: Cytotoxicity against human T24 cells assessed as decrease in cell viability measured after 48 hrs by MTT assay; assay type: toxicity, cell-based; details: t-24, 48 h, 20 µM, DDE = dose-dependent effect
[11] = test system: T-24; assay: Induction of mitochondrial membrane potential dysfunction in human T24 cells assessed as decrease in ATP production at 15 uM; assay type: functional; design: scale not given: the % may be the effect or the level left
[12] = test system: T-24; assay: Induction of mitochondrial mediated apoptosis in human T24 cells assessed as upregulation of apaf-1 expression at 10 to 15 uM incubated for 24 hrs by Western blotting analysis; assay type: functional, cell-based; details: dose 10-15 µM
[13] = test system: T-24; assay: Induction of apoptosis in human T24 cells assessed as increase in caspase 9 activity at 10 uM (Rvb= 7.2%); assay type: functional
[14] = test system: T-24; assay: Antitumor activity against human T24 cells xenografted in BALB/c nude mouse assessed as reduction in tumor volume at 30 mg/kg, IG administered every 2 days for 14 days; assay type: functional; details: time 14 day
[15] = test system: T-24; assay: Antitumor activity against human T24 cells xenografted in BALB/c nude mouse assessed as tumor growth inhibition at 30 mg/kg, IG administered every 2 days for 14 days; assay type: functional; design: scale not given: the % may be the effect or the level left; details: time 14 day
[16] = Toxicity in BALB/C nude mouse xenografted with human T24 cells assessed as decrease in body weight at 30 mg/kg, IG administered every 2 days for 14 days; assay type: organism-based, T-24; details: in vivo, po, 336 h, time 14 day
[17] = Toxicity in BALB/C nude mouse xenografted with human T24 cells assessed as effect on heart at 30 mg/kg, IG administered every 2 days for 14 days by H and E staining based assay; assay type: organism-based, T-24; details: in vivo, po, 336 h, time 14 day
[18] = test system: T-24; assay: Antitumor activity against human T24 cells xenografted in BALB/c nude mouse assessed as inhibition of tumor metastasis in liver at 30 mg/kg, IG administered every 2 days for 14 days; assay type: functional, organism-based; details: time 2.0 day
[19] = test system: T-24; assay: Induction of cell cycle arrest in human T24 cells assessed as accumulation of cells at S phase at 10 uM incubated for 24 hrs by propidium iodide/RNase A staining based flow cytometry analysis (reference value: 42.47 %); assay type: functional
[20] = test system: WI-38; assay: Induction of apoptosis in human WI-38 cells at IC50; assay type: toxicity, cell-based
[21] = test system: T-24; assay: Induction of apoptosis in human T24 cells assessed as contracted small fragmented nuclei at 10 uM by Hoechst33258 staining based fluorescence microscopy; assay type: functional, cell-based
[22] = test system: T-24; assay: Induction of mitochondrial membrane potential dysfunction in human T24 cells assessed as nuclear condensation at 10 to 15 uM by mito-tracker green dye based fluorescence microscopy; assay type: functional, cell-based; details: dose 10-15 µM
[23] = test system: T-24; assay: Induction of DNA damage in human T24 cells assessed as increase in gamma H2AX expression at 2 to 4 uM incubated for 24 hrs by Western blot analysis; assay type: functional, cell-based; details: dose 2-4 µM
[24] = test system: T-24; assay: Induction of mitochondrial membrane potential dysfunction in human T24 cells assessed as change in morphology at 2 to 4 uM by Mitotracker green dye based fluorescence microscopy; assay type: functional, cell-based; details: dose 2-4 µM
[25] = test system: T-24; assay: Induction of mitochondrial membrane potential dysfunction in human T24 cells assessed as shrinking mitochondria at 2 uM incubated for 24 hrs by TEM analysis; assay type: functional, cell-based
[26] = test system: T-24; assay: Induction of mitochondrial Ca2+ production in human T24 cells assessed as increase in intracellular Ca2+ concentration at 2 uM by Rhod2-AM staining based fluorescence microscopic method; assay type: functional, cell-based
[27] = test system: T-24; assay: Induction of apoptosis in human T24 cells assessed as increase in caspase 9 activity at 2uM (Rvb= 7.2%); assay type: functional
[28] = test system: T-24; assay: Induction of apoptosis in human T24 cells assessed as necrotic cells at 2 uM incubated for 24 hrs by Annexin-V/PI staining based flow cytometry analysis (reference value: 1.92 %); assay type: functional
[29] = test system: T-24; assay: Induction of apoptosis in human T24 cells assessed as late apoptotic cells at 2 uM incubated for 24 hrs by Annexin-V/PI staining based flow cytometry analysis (reference value: 0.543 %); assay type: functional
[30] = test system: T-24; assay: Induction of apoptosis in human T24 cells assessed as early apoptotic cells at 2 uM incubated for 24 hrs by Annexin-V/PI staining based flow cytometry analysis (reference value: 3.27 %); assay type: functional
[31] = test system: T-24; assay: Induction of apoptosis in human T24 cells assessed as viable cells at 2 uM incubated for 24 hrs by Annexin-V/PI staining based flow cytometry analysis (reference value: 94.3 %); assay type: functional; details: read-out: Activity
[32] = test system: T-24; assay: Induction of apoptosis in human T24 cells assessed as condensed chromatin at 2 uM by Hoechst33258 staining based fluorescence microscopy; assay type: functional, cell-based
[33] = test system: T-24; assay: Induction of mitochondrial membrane potential dysfunction in human T24 cells assessed as decrease in ATP production at 1 uM; assay type: functional; design: scale not given: the % may be the effect or the level left
[34] = test system: T-24; assay: Induction of mitochondrial membrane potential dysfunction in human T24 cells assessed as shrinking mitochondria at 0.5 uM incubated for 24 hrs by TEM analysis; assay type: functional, cell-based
[35] = test system: T-24; assay: Induction of mitochondrial mediated apoptosis in human T24 cells assessed as decrease in Bcl-2 protein expression at 0.5 to 1 uM incubated for 24 hrs by Western blotting analysis; assay type: functional, cell-based; details: dose 0.5-1 µM
[36] = test system: T-24; assay: Induction of mitochondrial ROS generation in human T24 cells at 0.5 uM measured after 24 hrs by DCFH-DA staining based confocal microscopy method; assay type: functional, cell-based
[37] = test system: T-24; assay: Induction of apoptosis in human T24 cells assessed as increase in caspase 3 activity at 1 uM (Rvb= 3.1%); assay type: functional
[38] = test system: T-24; assay: Induction of cell cycle arrest in human T24 cells assessed as accumulation of cells at G2/M phase at 1 uM incubated for 24 hrs by propidium iodide/RNase A staining based flow cytometry analysis (reference value: 5.82 %); assay type: functional
[39] = test system: T-24; assay: Potency index, ratio of oxoaporphine IC50 to test compound IC50 for anticancer activity against human T24 cells; assay type: functional

| SMILES | Activity [1] | Activity [2] | Activity [3] | Activity [4] | IC50 [5] [µM] | IC50 [6] [µM] | IC50 [7] [µM] | IC50 [8] [µM] | IC50 [9] [µM] | Activity [10] | Activity [14] [mm3] | Activity [15] [%] | Activity [16] | Activity [17] | Activity [18] | Activity [20] | Activity [28] [%] | Activity [29] [%] | Activity [30] [%] | viability at 2 µM [31] [%] | other results |
| --- | --- | --- | --- | --- | --- | --- | --- | --- | --- | --- | --- | --- | --- | --- | --- | --- | --- | --- | --- | --- | --- |
| O=C1c2ccccc2-c2cccc3ccnc1c23 | Non-Toxic | Non-Toxic | Non-Toxic | Non-Toxic | 12.3 | 12.6 | 9.5 | 37 | 20.2 | Dde | 722.033 | 40.8 | Non-Toxic | Non-Toxic | Active | Non-Toxic |  |  |  |  | Activity [11]: 66.2%; Activity [12]: Active; Activity [13]: 24.8%; Activity [19]: 54.86%; Activity [21]: Active; Activity [22]: Active |
| O=C1c2cc([N+](=O)[O-])ccc2-c2ccc([N+](=O)[O-])c3ccnc1c23 | Non-Toxic | Non-Toxic | Non-Toxic | Non-Toxic | 2.2 | 2.3 | 2 | 16 | 20.4 | Dde | 846.52 | 30.7 | Non-Toxic | Non-Toxic | Active | Non-Toxic | 1.97 | 4.79 | 27.4 | 65.8 | Activity [23]: Active; Activity [24]: Active; Activity [25]: Active; Activity [26]: Active; Activity [27]: 27.5%; Activity [32]: Active |
| O=C1c2ccccc2-c2ccc([N+](=O)[O-])c3ccnc1c23 | Non-Toxic | Non-Toxic | Non-Toxic | Non-Toxic | 1.3 | 1.1 | 0.5 | 8.9 | 14.8 | Dde | 605.28 | 49.5 | Non-Toxic | Non-Toxic | Active | Non-Toxic | 0.914 | 8.68 | 57.7 | 32.7 | Activity [33]: 47.3%; Activity [34]: Active; Activity [35]: Active; Activity [36]: Active; Activity [37]: 38.8%; Activity [38]: 61.26%; Ratio IC50 [39]: 19 |
